PubChem BioAssay AID2060893 (Molecular Pharmacology Branch, DTP, NCI, 2025)

System: K86415-001-R-J1-PDC complex spheroids, viability
Assay: Anticancer human tumor K86415-001-R-J1-PDC patient-derived lung adenocarcinoma cell line growth inhibition [RAS]
Conditions: for IC50: curve of first compound; for viability, T/C: stronger effect = lower value
In short: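 Multi-cell-type spheroids: tumor cells plus HUVEC endothelial cells and mesenchymal stem cells. RAS-pathway inhibitors were combined with targeted agents, each dosed in half-log steps down from clinical Cmax, or from 10 microM when Cmax was unknown.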

[1] = second compound 0.00316 µM, first compound 0.0316 µM
[2] = second compound 0.00316 µM, first compound 0.1 µM
[3] = second compound 0.00316 µM, first compound 0.316 µM
[4] = second compound 0.00316 µM, first compound 1 µM
[5] = second compound 0.00316 µM, first compound 3.16 µM
[6] = second compound 0.00316 µM, first compound 10 µM
[7] = second compound 0.01 µM, first compound 0.0316 µM
[8] = second compound 0.01 µM, first compound 0.1 µM
[9] = second compound 0.01 µM, first compound 0.316 µM
[10] = second compound 0.01 µM, first compound 1 µM
[11] = second compound 0.01 µM, first compound 3.16 µM
[12] = second compound 0.01 µM, first compound 10 µM
[13] = second compound 0.0316 µM, first compound 0.0316 µM
[14] = second compound 0.0316 µM, first compound 0.1 µM
[15] = second compound 0.0316 µM, first compound 0.316 µM
[16] = second compound 0.0316 µM, first compound 1 µM
[17] = second compound 0.0316 µM, first compound 3.16 µM
[18] = second compound 0.0316 µM, first compound 10 µM
[19] = second compound 0.1 µM, first compound 0.0316 µM
[20] = second compound 0.1 µM, first compound 0.1 µM
[21] = second compound 0.1 µM, first compound 0.316 µM
[22] = second compound 0.1 µM, first compound 1 µM
[23] = second compound 0.1 µM, first compound 3.16 µM
[24] = second compound 0.1 µM, first compound 10 µM
[25] = second compound 0.316 µM, first compound 0.0316 µM
[26] = second compound 0.316 µM, first compound 0.1 µM
[27] = second compound 0.316 µM, first compound 0.316 µM
[28] = second compound 0.316 µM, first compound 1 µM
[29] = second compound 0.316 µM, first compound 3.16 µM
[30] = second compound 0.316 µM, first compound 10 µM
[31] = second compound 1 µM, first compound 0.0316 µM
[32] = second compound 1 µM, first compound 0.1 µM
[33] = second compound 1 µM, first compound 0.316 µM
[34] = second compound 1 µM, first compound 1 µM
[35] = second compound 1 µM, first compound 3.16 µM
[36] = second compound 1 µM, first compound 10 µM
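Also: spheroids exposed to agents for seven days before readout.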

`CC(=O)OC12COC1CC(O)C1(C)C(=O)C(O)C3=C(C)C(OC(=O)C(O)C(NC(=O)OC(C)(C)C)c4ccccc4)CC(O)(C(OC(=O)c4ccccc4)C21)C3(C)C` (centres undefined) + C=CC(=O)N1CCN(c2nc(OCC3CCCN3C)nc3c(F)c(-c4nc(N)cc(C)c4C(F)(F)F)c(Cl)cc23)C(C)C1 was tested, and the IC50 (second compound 0.00316 µM) was < 31.6 nM, the IC50 (second compound 0.01 µM) was < 31.6 nM and the IC50 (second compound 0.0316 µM) was < 31.6 nM. For the same compound, the IC50 (second compound 0.1 µM) was < 31.6 nM, the IC50 (second compound 0.316 µM) was < 31.6 nM and the IC50 (second compound 1 µM) was < 31.6 nM. The viability, T/C [1] was 15.6%, the viability, T/C [2] was 15.6% and the viability, T/C [3] was 16.5%. It also gave a viability, T/C [4] of 15.9%, a viability, T/C [5] of 15.5% and a viability, T/C [6] of 15.2%. It also gave a viability, T/C [7] of 13.9%, a viability, T/C [8] of 14.1% and a viability, T/C [9] of 12.5%. It also gave a viability, T/C [10] of 13.2%, a viability, T/C [11] of 10.8% and a viability, T/C [12] of 9.16%. The viability, T/C [13] was 11.1%, the viability, T/C [14] was 10.8% and the viability, T/C [15] was 9.94%. The viability, T/C [16] was 9.79%, the viability, T/C [17] was 10.3% and the viability, T/C [18] was 8.13%. For the same compound, the viability, T/C [19] was 9.79%, the viability, T/C [20] was 11.2% and the viability, T/C [21] was 9.84%. For the same compound, the viability, T/C [22] was 9.57%, the viability, T/C [23] was 11.5% and the viability, T/C [24] was 9.04%. For the same compound, the viability, T/C [25] was 7.89%, the viability, T/C [26] was 9.45% and the viability, T/C [27] was 11.5%. It also gave a viability, T/C [28] of 9.36%, a viability, T/C [29] of 10.3% and a viability, T/C [30] of 8.4%. The viability, T/C [31] was 8.13%, the viability, T/C [32] was 10.6% and the viability, T/C [33] was 12.8%. It also gave a viability, T/C [34] of 9.39%, a viability, T/C [35] of 11.2% and a viability, T/C [36] of 10.5%.
`CCC(CC)c1cc(NC2CCC(N)C2)n2nccc2n1` (centres undefined) + C=CC(=O)N1CCN(c2nc(OCC3CCCN3C)nc3c(F)c(-c4nc(N)cc(C)c4C(F)(F)F)c(Cl)cc23)C(C)C1 was tested, and the IC50 (second compound 0.00316 µM) was < 31.6 nM, the IC50 (second compound 0.01 µM) was < 31.6 nM and the IC50 (second compound 0.0316 µM) was < 31.6 nM. The IC50 (second compound 0.1 µM) was < 31.6 nM, the IC50 (second compound 0.316 µM) was < 31.6 nM and the IC50 (second compound 1 µM) was < 31.6 nM. The viability, T/C [1] was 21.7%, the viability, T/C [2] was 20.9% and the viability, T/C [3] was 26.4%. It also gave a viability, T/C [4] of 45.6%, a viability, T/C [5] of 2.88% and a viability, T/C [6] of 3.26%. The viability, T/C [7] was 13.3%, the viability, T/C [8] was 12.7% and the viability, T/C [9] was 16.9%. The viability, T/C [10] was 23.3%, the viability, T/C [11] was 2.98% and the viability, T/C [12] was 2.44%. The viability, T/C [13] was 10.7%, the viability, T/C [14] was 13.9% and the viability, T/C [15] was 11.7%. It also gave a viability, T/C [16] of 15.9%, a viability, T/C [17] of 3.17% and a viability, T/C [18] of 2.7%. The viability, T/C [19] was 10.3%, the viability, T/C [20] was 12% and the viability, T/C [21] was 12.8%. For the same compound, the viability, T/C [22] was 13.7%, the viability, T/C [23] was 3.12% and the viability, T/C [24] was 2.45%. For the same compound, the viability, T/C [25] was 11.8%, the viability, T/C [26] was 14% and the viability, T/C [27] was 12%. It also gave a viability, T/C [28] of 17.7%, a viability, T/C [29] of 2.62% and a viability, T/C [30] of 3.41%. The viability, T/C [31] was 10.5%, the viability, T/C [32] was 13.1% and the viability, T/C [33] was 15.1%. For the same compound, the viability, T/C [34] was 14.7%, the viability, T/C [35] was 3.95% and the viability, T/C [36] was 4.47%.
